# Test results published in patent US20200208111A1, “GENOME-EDITED NK CELL AND METHODS OF MAKING AND USING” (REGENTS OF THE UNIVERSITY OF MINNESOTA, priority 2016, published 2020).
# Columns and labels:
# TIGIT = TIGIT expression in knockout NK cells by flow cytometry; type: cell-based, human; conditions: with Cas9 mRNA, compared to matched donor samples electroporated with Cas9 mRNA alone; five days after electroporation; n=2 donors
# Protocol: 3×10^6 NK cells from two donors (donors 407 and 613) stimulated with aAPCs were electroporated using the optimized NEON electroporation conditions with 10 μg Cas9 mRNA and 10 μg gRNA. Five days after electroporation, cells were harvested and stained with antibodies for CD56, CD3, TIGIT, and SYTOX Blue viability dye. Cells were gated on single cells (FSC-H vs FSC-A), CD56^+, CD3^−, SYTOX Blue^−, and TIGIT^+. TIGIT expression in knockout cells was compared to matched donor samples electroporated with Cas9 mRNA alone.
# PD1 = assay: CRISPR/Cas9 gene editing at PD1 in primary human NK cells, Surveyor nuclease activity assay; type: cell-based; conditions: chemically modified gRNA and Cas9 mRNA; 72 hours post electroporation
# Protocol: For FIGS. 1-7 (as appropriate), activity of the gRNAs was quantified by a Surveyor Digest, gel electrophoresis, and densitometry (Guschin et al., Methods Mol. Biol., 2010, 649:247-256).
# Unstimulated or stimulated CD3^−CD56^+ NK cells were nucleofected using the AMAXA nucleofection system (Human Macrophage Kit, Lonza Group, Basel, Switzerland). Cells were counted and resuspended at a density of 3.0×10^6 cells in 100 μL of Resuspension buffer, and the following reagents were added to the cells and buffer prior to nucleofection: 10 μg, 15 μg, or 20 μg mRNA Cas9 (TriLink. BioTechnologies, San Diego, Calif.), and 10 μg, 20 μg, or 30 μg gRNA (TriLink BioTechnologies, San Diego, Calif.). Three days after nucleofection, cells were harvested and gRNA activity was measured as above.
# CISH = CISH expression in NK cells after electroporation, protein lysates on Wes machine with CISH-specific antibody; type: cell-based, human; conditions: with Cas9 mRNA, compared to matched donor samples electroporated with Cas9 mRNA alone; five days after electroporation; n=3 donors
# Protocol: NK cells (3×10^6) from three donors (donors 070, 380, and 437) stimulated with aAPCs were electroporated using the optimized NEON electroporation conditions with 10 μg Cas9 mRNA and 10 μg CISH gRNA. Five days after electroporation, cells were harvested and protein lysates were run with a CISH-specific antibody on a Wes machine (Protein Simple, San Jose, Calif.) and CISH expression (area under peak) normalized to ([…] was analyzed using Compass Software (Protein Simple, Bio-Techne, Minneapolis, Minn.). Results are shown in FIG. 9.
substance,measurement,setting,value
"TIGIT gRNA: guide RNA GACCUGGGUCACUUGUGCCG (SEQ ID NO: 13) (listed as RNA, chemistry not given here)",TIGIT expression,TIGIT,decreased
"PD1 gRNA: guide RNA CCUGCUCGUGGUGACCGAAG (SEQ ID NO: 11), chemically modified (chemically modified, pattern not given here)",Gene modification of NK cells,PD1,gene modification of NK cells was induced
"CISH gRNA: guide RNA GGGUUCCAUUACGGCCAGCG (SEQ ID NO: 14) (listed as RNA, chemistry not given here)",CISH expression,CISH,decreased
